Test results reported in the NIST ThermoML archive (doi:10.1021/je050376y).

Assay: xn = mol fraction of the nth substance listed
Conditions: 101 kPa, Liquid

Cc1ccc(O)cc1 [4-methylphenol] + OCCO
Conditions	mass density [kg/m3]	viscosity [mPa·s]
308.15 K, x1 = 0.1001	1088.89	12.15
308.15 K, x1 = 0.1999	1077.45	12.43
308.15 K, x1 = 0.2997	1067.32	12.43
308.15 K, x1 = 0.4001	1058.44	12.09
308.15 K, x1 = 0.4998	1050.66	11.54
308.15 K, x1 = 0.6002	1043.69	10.83
308.15 K, x1 = 0.7	1037.34	10.01
308.15 K, x1 = 0.8	1031.62	9.31
308.15 K, x1 = 0.8994	1026.55	8.726
308.15 K, x1 = 1	1021.98	8.444
313.15 K, x1 = 0.1001	1085.2	9.956
313.15 K, x1 = 0.1999	1073.68	10.18
313.15 K, x1 = 0.2997	1063.52	10.13
313.15 K, x1 = 0.4001	1054.58	9.821
313.15 K, x1 = 0.4998	1046.78	9.353
313.15 K, x1 = 0.6002	1039.82	8.735
313.15 K, x1 = 0.7	1033.45	8.103
313.15 K, x1 = 0.8	1027.72	7.526
313.15 K, x1 = 0.8994	1022.63	7.022
313.15 K, x1 = 1	1018.05	6.745
318.15 K, x1 = 0.1001	1081.49	8.319
318.15 K, x1 = 0.1999	1069.89	8.436
318.15 K, x1 = 0.2997	1059.67	8.358
318.15 K, x1 = 0.4001	1050.7	8.059
318.15 K, x1 = 0.4998	1042.88	7.662
318.15 K, x1 = 0.6002	1035.9	7.175
318.15 K, x1 = 0.7	1029.55	6.646
318.15 K, x1 = 0.8	1023.79	6.177
318.15 K, x1 = 0.8994	1018.7	5.739
318.15 K, x1 = 1	1014.09	5.471
323.15 K, x1 = 0.1001	1077.77	7.031
323.15 K, x1 = 0.1999	1066.09	7.069
323.15 K, x1 = 0.2997	1055.81	6.976
323.15 K, x1 = 0.4001	1046.81	6.721
323.15 K, x1 = 0.4998	1038.98	6.378
323.15 K, x1 = 0.6002	1031.99	5.971
323.15 K, x1 = 0.7	1025.61	5.523
323.15 K, x1 = 0.8	1019.85	5.136
323.15 K, x1 = 0.8994	1014.75	4.788
323.15 K, x1 = 1	1010.12	4.532
333.15 K, x1 = 0.1001	1070.28	5.121
333.15 K, x1 = 0.1999	1058.44	5.137
333.15 K, x1 = 0.2997	1048.06	5.029
333.15 K, x1 = 0.4001	1038.98	4.824
333.15 K, x1 = 0.4998	1031.11	4.607
333.15 K, x1 = 0.6002	1024.09	4.298
333.15 K, x1 = 0.7	1017.71	3.988
333.15 K, x1 = 0.8	1011.92	3.711
333.15 K, x1 = 0.8994	1006.8	3.461
333.15 K, x1 = 1	1002.09	3.245
343.15 K, x1 = 0.1001	1060.64	3.886
343.15 K, x1 = 0.1999	1048.68	3.849
343.15 K, x1 = 0.2997	1038.24	3.752
343.15 K, x1 = 0.4001	1029.09	3.602
343.15 K, x1 = 0.4998	1021.2	3.424
343.15 K, x1 = 0.6002	1014.17	3.201
343.15 K, x1 = 0.7	1007.79	2.995
343.15 K, x1 = 0.8	1001.99	2.786
343.15 K, x1 = 0.8994	996.84	2.588
343.15 K, x1 = 1	992.07	2.431
353.15 K, x1 = 0.1001	1055.58	2.934
353.15 K, x1 = 0.1999	1043.36	2.99
353.15 K, x1 = 0.2997	1032.81	2.915
353.15 K, x1 = 0.4001	1023.59	2.776
353.15 K, x1 = 0.4998	1015.62	2.648
353.15 K, x1 = 0.6002	1008.55	2.488
353.15 K, x1 = 0.7	1002.15	2.326
353.15 K, x1 = 0.8	996.33	2.173
353.15 K, x1 = 0.8994	991.1	2.022
353.15 K, x1 = 1	986.24	1.891
